The conditions of series [1]: diltiazem 30 mg three times daily; day 7 after KT; CYP3A5 expressers; cited from earlier work.
The nature of series [2]: Early-morning blood pressure and pulse rate in kidney transplant recipients. Format: in vivo, human. As to conditions: for Diastolic blood pressure / Pulse rate: diltiazem 30 mg every 12 h. On the procedure: All patients received a fixed dose of omeprazole 40 mg/day.
For calculation of AUC/D and C0/D, values of AUC and C0 were dose-adjusted by dividing the observed values by the dose recorded on the day of blood collection. Early-morning blood pressures were measured on the same day of blood collection for pharmacokinetic analysis by a ward nurse as part of a routine examination, during rest in a seated position with a calibrated and well-maintained automatic sphygmomanometer. Delayed graft function (DGF) was defined as failure of the kidney graft to function immediately, with the need for dialysis in the first 7 days post-KT. Episode of biopsy-proven acute rejection (BPAR) during 3 months post-KT was diagnosed based on histologic findings in indication kidney graft biopsy according to Banff 2015 criteria.

Where [3] appears, read: day 3 post-transplantation, CYP3A5 expressers (n = 11), mean ± SD.
[4] abbreviates: day 3 post-transplantation, CYP3A5 non-expressers (n = 9), mean ± SD.
Where [5] appears, read: day 7 post-transplantation, CYP3A5 expressers (n = 11), mean ± SD.
Where [6] appears, read: day 7 post-transplantation, CYP3A5 non-expressers (n = 9), mean ± SD.

`COc1ccc([C@@H]2Sc3ccccc3N(CCN(C)C)C(=O)[C@@H]2OC(C)=O)cc1` [Diltiazem]: in series [1], the “Effect of diltiazem coadministration on tacrolimus dose-adjusted trough concentration (C0/D)” value is “Significantly higher”. Further, the Diastolic blood pressure in series [2] (day 1 post-transplantation, CYP3A5 expressers (n = 11), mean ± SD) came to 89.2 ± 13.3 mmHg; in series [2] (day 1 post-transplantation, CYP3A5 non-expressers (n = 9), mean ± SD), 87.4 ± 14.8 mmHg; in series [2] (setting [3]), 86.8 ± 13.5 mmHg; in series [2] (setting [4]), 84.3 ± 14.0 mmHg; in series [2] (setting [5]), 77.8 ± 13.3 mmHg; in series [2] (setting [6]) it was 81.0 ± 7.3 mmHg. Also, the Pulse rate in series [2] (day 1 post-transplantation, CYP3A5 expressers (n = 11), median (IQR)) is listed as 82.0 (74.0, 86.0) bpm; in series [2] (day 1 post-transplantation, CYP3A5 non-expressers (n = 9), median (IQR)), 82.0 (73.0, 86.0) bpm; in series [2] (setting [3]) it was 86.6 ± 15.4 bpm; in series [2] (setting [4]) it was 82.4 ± 7.2 bpm; in series [2] (setting [5]) it was 80.2 ± 11.2 bpm; in series [2] (setting [6]) it was 81.8 ± 8.6 bpm. The “Effects on blood pressure” value in series [2] (diltiazem 60 mg/day, first week post-KT) is given as “No significant effects on blood pressure”.

The values are drawn from paper PMC9393165 (Scientific Reports, 2022).
